# From PubChem BioAssay AID1996
# Conditions: buffer; pH 7.4; 200.0 µM
row,Structure (SMILES),solubility kinetic
1,Cc1ccc(NC(=O)c2ccc(Cl)cc2Cl)cc1O,12 µg/mL
2,Cc1cc(C(=O)O)ccc1N=Cc1c(O)ccc2ccccc12,> 45.8 µg/mL
3,Cc1ccc(N(Cc2ccccc2)C(=O)c2ccc(F)cc2)cc1,9.1 µg/mL
4,COc1ccc(SCC2CN(C)CCC2c2ccc(F)cc2)cc1.Cl (stereo not given),32.5 µg/mL
5,Cc1ccc2c(c1)sc1ncc(NC(=O)c3ccc(F)cc3)c(=O)n12,< 0.3 µg/mL
6,Cc1ccc2nc(-c3ccccn3)cc(C(=O)NC(C)C(C)(C)C)c2c1 (stereo not given),3.2 µg/mL
7,O=C(/C=C/c1ccco1)c1cccnc1,23.8 µg/mL
8,COCCNc1c2c(nc3ccccc13)CCC2.Cl,> 41.8 µg/mL
9,O=C(O)c1ccccc1Nc1ccnc(Cl)n1,> 37.4 µg/mL
10,COc1cc(NC(C)CCc2ccccc2)cc(OC)c1OC (stereo not given),> 47.3 µg/mL
11,CCN1CCN(S(=O)(=O)c2ccc3c4c(cccc24)C(=O)N3CC)CC1,> 56 µg/mL
12,CC(C)(C)c1csc(NC(=O)c2ccccc2O)n1,9.3 µg/mL
13,S=C1SCN(Cc2cccnc2)CN1Cc1cccnc1,> 47.5 µg/mL
14,CCOCC(=O)Nc1ccc(S(=O)(=O)NCC2CCCO2)cc1 (stereo not given),> 51.4 µg/mL
15,COc1ccc(C(=O)Nc2ccccc2C(=O)NCc2ccco2)cc1,2.1 µg/mL
16,Brc1ccccc1OCCCCN1CCCCC1,39.1 µg/mL
17,COCCCNC(=S)Nc1ccccc1[N+](=O)[O-],> 40.4 µg/mL
18,COc1ccc(OC)c(/C=N/OC(=O)Nc2ccc(Cl)cc2)c1,8.3 µg/mL
19,COc1ccc(NC(=S)NC(=O)/C=C/c2ccco2)cc1,1.2 µg/mL
20,CC(C)CCNC(=O)c1cc(-c2cccs2)nc2ccccc12,< 0.3 µg/mL
21,COc1ccc(Nc2nc(N)c([N+](=O)[O-])c(NC3CCCCC3)n2)cc1,0.2 µg/mL
22,OCCNC(=S)Nc1cccc(Cl)c1Cl,> 39.8 µg/mL
23,CC1=C/C(=N\OS(=O)(=O)c2ccccc2)C=CC1=O,7.9 µg/mL
24,Cc1nc(-c2ccccn2)nc(N(C)c2ccccc2)c1Cl,41.7 µg/mL
25,CCOC(=O)c1ccc(NC(=O)CCC(=O)NCc2ccco2)cc1,4.7 µg/mL

row,Structure (SMILES),solubility kinetic
1,CNc1nc(=S)[nH]c2ccccc12,> 28.7 µg/mL
2,NC1=NC(=O)/C(=C\c2ccsc2)S1,28.6 µg/mL
3,O=C(NCc1nc(-c2ccc(C(F)(F)F)cc2)no1)c1cccs1,7.1 µg/mL
4,Cc1ccc(S(=O)(=O)Oc2ccccc2/C=C2/SC(=O)NC2=O)cc1,52.7 µg/mL
5,O=C1c2ccc([N+](=O)[O-])cc2C(=O)N1Cc1cccnc1,> 42.5 µg/mL
6,Cc1ccc(N(CCC#N)C(=O)COC(=O)c2ccccn2)cc1,> 48.5 µg/mL
7,O=C(c1ccccc1)c1c[nH]c2ccccc12,1.9 µg/mL
8,CNC(=S)SCCOc1ccccc1,17.5 µg/mL
9,CC(C)(C)c1ccc(C(=O)NC(=S)NCc2ccco2)cc1,0.6 µg/mL
10,CCn1ncc(S(=O)(=O)Nc2cc(Cl)ccc2C)c1C,> 47.1 µg/mL
11,O=C(NC12CC3CC(CC(C3)C1)C2)c1ccc([N+](=O)[O-])cc1,5.4 µg/mL
12,Fc1ccc(CNC2CCN(Cc3ccccc3)CC2)cc1,35.7 µg/mL
13,O=C(CCSc1ccc(Cl)cc1)NCc1ccncc1,> 46 µg/mL
14,CNCCCC1c2ccccc2C=Cc2ccccc21.Cl,> 45 µg/mL
15,CCc1nc2ccccc2c(C(=O)NCc2ccccc2)c1C,33.9 µg/mL
16,O=C(COc1ccc(C2SCCS2)cc1)Nc1ccc(Cl)cc1,< 0.8 µg/mL
17,O=C(NCCc1ccccc1)c1ccc(Cl)c(S(=O)(=O)N2CCOCC2)c1,9.3 µg/mL
18,O=C(CSc1nnc(Nc2ccccc2F)s1)NCC1CCCO1 (stereo not given),> 55.3 µg/mL
19,O=C(O)C1C2C=CC(C2)C1C(=O)Nc1cccc(Cl)c1 (stereo not given),42.8 µg/mL
20,CN1C(=S)SC(/[N+]([O-])=C\c2ccccc2F)C1(C)C (stereo not given),> 44.8 µg/mL
21,Oc1ccc(-c2cn3ccccc3n2)cc1O,24 µg/mL
22,CN(Cc1ccc(F)cc1)C(=O)c1ccc2c(c1)NC(=O)CS2,> 49.6 µg/mL
23,Cc1cc(NC(=O)Cc2ccccc2C)no1,32.5 µg/mL
24,CC(C)c1ccc(N)c(S(=O)(=O)O)c1,> 32.3 µg/mL
25,Cc1ccc(S(=O)(=O)NCc2ccccn2)cc1C,> 41.5 µg/mL

row,Structure (SMILES),solubility kinetic
1,CC(=O)Nc1ccc2nc(NC(=O)c3cccs3)sc2c1,3.6 µg/mL
2,O=C(NCc1ccc(F)cc1)c1cnccn1,> 34.7 µg/mL
3,COc1ccc(CNC(=O)c2coc(=O)c3ccccc23)cc1,30.8 µg/mL
4,O=C(Cn1c(C(=O)OCCO)cc2ccccc21)c1ccccc1,6.8 µg/mL
5,COc1ccc(NC(=O)CCNC(=O)c2ccco2)c(OC)c1,> 47.7 µg/mL
6,CC(=O)Nc1ccc(NC(=O)Cn2ccc([N+](=O)[O-])n2)cc1,> 45.5 µg/mL
7,COc1cccc(C2C([N+](=O)[O-])=C(N)Oc3cc(C)oc(=O)c32)c1 (stereo not given),> 49.5 µg/mL
8,C=CC(=O)Oc1ccc(N2Cc3ccccc3C2=O)cc1,2.4 µg/mL
9,S=C(NCc1ccc2c(c1)OCO2)NCc1ccco1,> 43.6 µg/mL
10,CNC(=O)/C(C#N)=C/c1ccc(OCCOc2ccccc2)cc1,2.3 µg/mL
11,O=C(Nc1ncccn1)C1CCCCC1,> 30.8 µg/mL
12,CCSc1nc2ccc(C)cc2cc1C#N,< 0.2 µg/mL
13,O=c1cc(C(F)(F)F)[nH]c2ccccc12,> 32 µg/mL
14,O=C(COC(=O)c1cccs1)Nc1ccccc1C(F)(F)F,2.5 µg/mL
15,C(=N\Nc1nc2ccccc2[nH]1)/C1CCCCC1,> 36.3 µg/mL
16,COc1ccc(NC(=O)COC(=O)c2ccc([N+](=O)[O-])o2)cc1Cl,19.2 µg/mL
17,CCOc1ccc(-n2c(-c3cccs3)nc3ccccc3c2=O)cc1,0.5 µg/mL
18,N#Cc1ccsc1NC(=O)COC(=O)c1ccc(Br)o1,10.5 µg/mL
19,NS(=O)(=O)c1ccc(CCNC(=O)c2ccc(Cl)s2)cc1,10.6 µg/mL
20,O=C(CNC(=O)c1cccs1)OCc1c(F)cccc1Cl,42.4 µg/mL
21,CCOc1c(O)ccc(/C=C2\SC(=S)NC2=O)c1[N+](=O)[O-],6.8 µg/mL
22,COc1cc2ccccc2cc1C(=O)NCc1ccncc1,> 43.9 µg/mL
23,N#C/C(=C/c1cccs1)c1ccccn1,7 µg/mL
24,CCCn1c(C(C)NS(=O)(=O)c2ccccc2)n[nH]c1=S (stereo not given),> 49 µg/mL

# Continued, values first:
row,solubility kinetic,Structure (SMILES)
1,29.8 µg/mL,COc1ccc(OCC(=O)N2CCc3ccccc3C2)cc1
2,42.6 µg/mL,CN(C(=O)C1CCC1C(=O)O)c1nc(-c2ccc(Cl)s2)cs1 (stereo not given)
3,21.6 µg/mL,Cc1cc2ncn(C(=O)c3ccc(F)cc3)c2cc1C
4,> 44.9 µg/mL,O=C(Nc1ccc(Br)cc1)N1CCCC(O)C1 (stereo not given)
5,13.3 µg/mL,Cc1cc(C)nc(NC(=O)c2ccc([N+](=O)[O-])c(C)c2)n1
6,> 59.2 µg/mL,CS(=O)(=O)O.c1cnc(N2CCN(Cc3ccc4c(c3)OCO4)CC2)nc1
7,46.6 µg/mL,CCOCCCNC(=O)CN1CCN(Cc2ccc(Cl)cc2)C1=O
8,> 43 µg/mL,Cc1csc(SC(C)C(=O)NCC2CCCO2)n1 (stereo not given)
9,42 µg/mL,Cc1ccc(NC(=O)C2CC(=O)N(CCc3ccccc3)C2)c(C)c1 (stereo not given)
10,19.6 µg/mL,COc1ccc(NC(=O)COC(=O)CCc2ccc(S(=O)(=O)N3CCOCC3)cc2)cc1Cl
11,> 42.2 µg/mL,Cc1ccc(NC(=O)c2nc3nccc(C)n3n2)c(C)c1
12,> 31.7 µg/mL,Cc1nnc(NC(=O)C2CCCC2)s1
13,> 39.4 µg/mL,CC(=O)c1c(C)[nH]c(C(=O)N2CCCC(C)C2)c1C (stereo not given)
14,> 42.9 µg/mL,CCOC(=O)c1ccc2[nH]c3c(c2c1)CCCC3NC=O (stereo not given)
15,> 46.1 µg/mL,COc1ccc(C(=O)OCC(=O)NC2CCCC2)cc1OC
16,7.2 µg/mL,O=C(CNS(=O)(=O)c1ccc(Br)cc1)N1CCN(Cc2ccccc2)CC1
17,40.6 µg/mL,COc1c(C)cc(C(=O)C2CCCN(C(=O)/C=C/c3ccccn3)C2)cc1C (stereo not given)
18,> 23.6 µg/mL,Cc1nc(C)c(C(=O)O)s1
19,4.1 µg/mL,Oc1c(CN2CCCC(C(F)(F)F)C2)cc(Cl)c2ccccc12 (stereo not given)
20,> 47.3 µg/mL,Cc1cc(Br)ccc1NC(=S)N1CCOCC1
21,44.2 µg/mL,Cc1cc(C)c(S(=O)(=O)NCC(=O)NCc2ccco2)c(C)c1
22,35 µg/mL,CCC1CCCCN1CC(=O)c1c(C)[nH]c2ccc(OC)cc12 (stereo not given)
23,> 49 µg/mL,Cc1csc(=O)n1CC(=O)Nc1ccc(S(C)(=O)=O)cc1

row,solubility kinetic,Structure (SMILES)
1,> 49.3 µg/mL,CCC(=O)Nc1ccc2c(c1)nc(CCN1CCC(C)CC1)n2C
2,> 49.1 µg/mL,Cc1ccc(C)c(SCC(=O)N(C)C2CCS(=O)(=O)C2)c1 (stereo not given)
3,> 45.8 µg/mL,COc1ccc(/C=C/C(=O)OCC(=O)NC2CC2)c(OC)c1
4,25.6 µg/mL,COC(=O)CSc1nc(N2CCOCC2)c2c(c1C#N)CCCC2
5,40 µg/mL,CC(=O)c1sc(C(C)(C)C)cc1NC(=O)/C=C/C(=O)O
6,53.2 µg/mL,CN(Cc1c(F)cccc1Cl)C(=O)c1ccc(NC(=O)CC2SC(N3CCCCC3)=NC2=O)cc1 (stereo not given)
7,> 37.7 µg/mL,O=C(NCC1CCCO1)c1cc2c(s1)CCC2 (stereo not given)
8,49.8 µg/mL,COCC(=O)N1CCCC(C(=O)c2ccc3c4c(cccc24)CC3)C1 (stereo not given)
9,35.1 µg/mL,CC(=O)Nc1ccc(S(=O)(=O)NC2CCCCCC2)cc1
10,< 0.2 µg/mL,NC(=O)CSc1nc(C2CC2)nc2sc3c(c12)CCCC3
11,7.3 µg/mL,Cc1nc(SCC(=O)Nc2ccc(S(=O)(=O)N3CCOCC3)cc2)c2c(C)c(C)sc2n1
12,51.4 µg/mL,CCN(CC)CC(=O)c1c(N)n(Cc2ccccc2)c(=O)n(C)c1=O
13,> 48.7 µg/mL,O=C(Nc1sc2c(c1C(=O)O)CCC2)C(=O)N1CCOCC1
14,46.3 µg/mL,CC(NC(=O)CN1CCN(c2ccccc2F)CC1)c1ccccc1 (stereo not given)
15,39.3 µg/mL,CC(C)CCN1CCN(Cc2cc3ccccc3[nH]2)CC1CCO (stereo not given)
16,> 46 µg/mL,Cc1cccc(N2C(=O)C(Cl)=C(N3CCOCC3)C2=O)c1
17,> 49.4 µg/mL,CC(C)c1ccc(NC2CCCN(C(=O)c3cscn3)C2)cc1 (stereo not given)
18,20.4 µg/mL,Cc1cc(C)cc(OCC(=O)O/N=C(\N)Cc2ccc([N+](=O)[O-])cc2)c1
19,12.1 µg/mL,CC1(C)C(=O)Nc2ccccc2N1C(=O)COC(=O)c1ccc([N+](=O)[O-])o1
20,> 45.5 µg/mL,Cc1ccc2nc(SC(C)C(=O)N3CCCCC3)[nH]c2c1 (stereo not given)
21,21.9 µg/mL,O=S(=O)(c1ccc(=S)[nH]c1)N1CCCCC1
22,> 45 µg/mL,Cc1ccc(OCC(O)CNC2CCCC2)cc1C.Cl (stereo not given)
23,> 46.7 µg/mL,COCCNC(=S)N1CCC(NC(=O)c2ccco2)CC1
